Results: PMC8989888, “Development of optimized drug-like small molecule inhibitors of the SARS-CoV-2 3CL protease for treatment of COVID-19” (Nature Communications, 2022)
Several values for one entry are separate records, joined by “and”; a condition that tells them apart may be missing. Equal entries are not always repeated. Where two headings read alike, the source gives them in different places.

What was measured:
[1] = Mouse liver microsome stability; settings: liver microsomes, second (control) series
[2] = test system: SARS-CoV-2; assay: microbe, parasite or virus in culture; assay type: cell-based; settings: for EC50: Severe acute respiratory syndrome coronavirus 2, 24 h, read-out: SARS-CoV-2 Huh-7ACE2 EC50
[3] = test system: SARS-CoV-2; assay: microbe, parasite or virus in culture; settings: Severe acute respiratory syndrome coronavirus 2, Caco-2, 72 h, read-out: SARS-CoV-2 Caco-2 EC90
[4] = in vitro
[5] = biological target: T1, SARS-CoV-2 3CL protease (Severe acute respiratory syndrome coronavirus 2, UniProt P0DTD1); assay: biochemical; settings: for kinact/KI: read-out: SARS-CoV-2 3CLpro kinact/KI
[6] = test system: SARS-CoV-2; assay: microbe, parasite or virus in culture; assay type: cell-based
[7] = test system: Influenza A H1N1 (strain: California/07/2009); assay: microbe, parasite or virus in culture; assay type: cell-based
[8] = biological target: T1, SARS-CoV-2 3CL protease; assay: biochemical; settings: for % SARS-CoV-2 3CL activity: 200 nM protease, replicates
[9] = test system: Human coronavirus alpha (strain: 229E); assay: organism not typed; assay type: cell-based, HCoV-229E; settings: Huh-7, read-out: EC50, human coronavirus 229E
[10] = test system: SARS-CoV-2; assay: microbe, parasite or virus in culture; assay type: cell-based; settings: Severe acute respiratory syndrome coronavirus 2, read-out: SARS-CoV-2 EC50
[11] = test system: Human coronavirus beta (strain: OC43); assay: organism not typed; assay type: cell-based, HCoV-OC43; settings: Huh-7, read-out: EC50, human coronavirus OC43
[12] = biological target: SARS-CoV-2; assay: cell-based
[13] = biological target: T1, SARS-CoV-2 3CL protease; assay type: binding
[14] = test system: human chymotrypsin; assay: Chymotrypsin activity assay (Panc-1 cell lysate); assay type: biochemical
[15] = biological target: T1, SARS-CoV-2 3CL protease; assay type: binding; remark: listed apart in the source
[16] = test system: SARS-CoV-2; settings: read-out: SARS-CoV-2 antiviral EC50; cited from earlier work
[17] = in vitro; settings: CD-1, mouse, plasma
[18] = in vitro; settings: human, plasma
[19] = in vitro; settings: CD-1, mouse, microsomes, pH 7.4
[20] = in vitro; settings: human, microsomes, pH 7.4
[21] = Severe acute respiratory syndrome coronavirus 2, Vero C1008, read-out: SARS-CoV-2 Vero E6 EC50
[22] = 20 nM protease, read-out: SARS-CoV-2 3CLpro IC50
[23] = Concentration of inhibitor (nM) 0.19382
[24] = Concentration of inhibitor (nM) 0.49485
[25] = Concentration of inhibitor (nM) 0.79588
[26] = Concentration of inhibitor (nM) 1.09691
[27] = Concentration of inhibitor (nM) 1.39794
[28] = Concentration of inhibitor (nM) 1.69897
[29] = Concentration of inhibitor (nM) 2
[30] = Concentration of inhibitor (nM) 2.30103
[31] = Concentration of inhibitor (nM) 2.60206
[32] = Concentration of inhibitor (nM) -0.10721
[33] = Concentration of inhibitor (nM) -0.40824
[34] = Severe acute respiratory syndrome coronavirus 2, Vero C1008, 72 h, read-out: EC50, inhibition of SARS-CoV-2 viral replication

CCOc1ccc2ccc(=O)oc2c1 [7-ethoxycoumarin]
percent remaining (Figure S11f) ([1]; Time T0 min): 100
percent remaining (Figure S11f) ([1]; Time T40 min): 93.3574 and 91.0789
percent remaining (Figure S11f) ([1]; Time T80 min): 86.8345 and 92.3642

CC(C)C[C@H](NC(=O)OCc1cccc(Cl)c1)C(=O)N[C@@H](C[C@@H]1CCNC1=O)C(O)S(=O)(=O)O (some centres unmarked) [EB46]
inhibition of SARS-CoV-2 (Figure s17b dose-response, replicate values) [2]: 95.1515 and 86.8894 and 89.9129 and 91.3208 and 86.4116 and 95.1857 and 65.8333 and 65.5396 and 57.9806 and 19.6057 and 31.892 and 43.1913 and 11.28 and 11.1506 and 22.0558 and -4.012 and 10.0819 and 19.0531 and -4.489 and -1.7527 and 16.6924
EC50 [2]: 14 nM
EC90 [3]: 53 nM
CC50 [4]: > 100000 nM
observed inactivation rate vs compound concentration (Figure S19, replicate values) [5]: 0.066 and 0.0593 and 0.077 and 0.0911 and 0.0219 and 0.0804 and 0.0309 and 0.0674 and 0.0293 and 0.0341 and 0.0137 and 0.0021 and 0.0076 and 0.0213 and 0.0308 and 0.0151 and 0.0444 and 0.0119
kinact/KI [5]: 55000 M⁻¹ s⁻¹
EC50 [6, 21]: 2000 nM
effect on replication of Influenza H1N1 (in words) [7]: no effect was observed
EC50 ([7]; Influenza A virus, H1N1, MDCK, read-out: Influenza A (H1N1) MDCK EC50): > 100000 nM
IC50 [8, 22]: 23 nM
normalized activity, dose-response curve (Figure S16) [8, 23]: 94.5875 and 99.4983
normalized activity, dose-response curve (Figure S16) [8, 24]: 85.636 and 94.5724
normalized activity, dose-response curve (Figure S16) [8, 25]: 82.4718 and 89.5097
normalized activity, dose-response curve (Figure S16) [8, 26]: 66.6922 and 69.8061
normalized activity, dose-response curve (Figure S16) [8, 27]: 43.7931 and 49.1904
normalized activity, dose-response curve (Figure S16) [8, 28]: 26.3066 and 19.407
normalized activity, dose-response curve (Figure S16) [8, 29]: 3.283 and 4.675
normalized activity, dose-response curve (Figure S16) [8, 30]: 2.2 and 3.398
normalized activity, dose-response curve (Figure S16) [8, 31]: 0.4514 and 0.7525
normalized activity, dose-response curve (Figure S16) [8, 32]: 95.5867 and 98.0844
normalized activity, dose-response curve (Figure S16) [8, 33]: 100
EC50 [9]: < 100 nM
EC50 [10]: 47 nM
EC50 [11]: < 100 nM
EC50 [12]: 1100 nM

CC(C)C[C@H](NC(=O)OCc1ccc2ccccc2c1)C(=O)N[C@@H](C[C@@H]1CCNC1=O)C(O)S(=O)(=O)O (some centres unmarked) [EB56]
inhibition of SARS-CoV-2 (Figure s17b dose-response, replicate values) [2]: 102.227 and 102.618 and 99.1767 and 91.8872 and 92.3176 and 92.3719 and 59.4672 and 57.4366 and 41.3693 and 36.9002 and 26.4205 and 14.778 and 9.09 and 16.3686 and 1.374 and -4.092 and 13.2513 and -12.3171 and 9.345 and 11.9707 and 3.907
EC50 [2]: 28 nM
observed inactivation rate vs compound concentration (Figure S19, replicate values) [5]: 0.0572 and 0.0815 and 0.095 and 0.0426 and 0.0949 and 0.1078 and 0.0732 and 0.0307 and 0.0058 and 0.0365 and 0.0284 and 0.0434 and 0.0176 and 0.0243 and -0.00666 and 0.0205 and 0.0022 and 0.0219 and 0.0071 and 0.0016 and -0.00538
kinact/KI [5]: 18300 M⁻¹ s⁻¹
EC50 [6, 21]: 4000 nM
IC50 [8, 22]: 50 nM
normalized activity, dose-response curve (Figure S16) [8, 23]: 89.823 and 93.9936
normalized activity, dose-response curve (Figure S16) [8, 24]: 85.2362 and 82.2757
normalized activity, dose-response curve (Figure S16) [8, 25]: 85.487 and 88.0978
normalized activity, dose-response curve (Figure S16) [8, 26]: 72.8375 and 72.1422
normalized activity, dose-response curve (Figure S16) [8, 27]: 69.3615 and 64.0723
normalized activity, dose-response curve (Figure S16) [8, 28]: 53.5944 and 48.1904
normalized activity, dose-response curve (Figure S16) [8, 29]: 29.9078 and 31.2768
normalized activity, dose-response curve (Figure S16) [8, 31]: 3.964 and 3.456
normalized activity, dose-response curve (Figure S16) [8, 32]: 94.804 and 91.5247
normalized activity, dose-response curve (Figure S16) [8, 33]: 100
binding to 3CL protease by mass spectrometry (in words) [13]: blocked the covalent binding of 10 equivalents of compound 4
EC50 [12]: 800 nM

O=C(Oc1cncc(Cl)c1)c1cccs1 [MAC-5576, reference compound]
Normalized chymotrypsin activity [14]: 1.078 and 0.9826 and 0.9946
% SARS-CoV-2 inhibition [6]: -2%
EC50, inhibition of SARS-CoV-2 viral replication [6]: did not
IC50 ([8]; IC50): 93 nM
IC50 ([8]; SARS-CoV-2 3CLpro IC50): 10 nM
binding to 3CL protease by mass spectrometry (in words) [13]: one-to-one complex
binding stoichiometry [15]: 1.2 ± 0.2

CC(C)(C)[C@H](NC(=O)C(F)(F)F)C(=O)N1C[C@H]2[C@@H]([C@H]1C(=O)N[C@H](C#N)C[C@@H]1CCNC1=O)C2(C)C [PF-07321332]
EC50 [16]: 78 nM

O=C(N[C@@H](CC1CCCCC1)C(=O)N[C@@H](C[C@@H]1CCNC1=O)C(O)S(=O)(=O)O)OCc1ccccc1 (some centres unmarked) [SL-4-241]
observed inactivation rate vs compound concentration (Figure S19, replicate values) [5]: 0.0986 and 0.0638 and 0.0852 and 0.1375 and 0.0874 and 0.0292 and 0.1342 and 0.0676 and 0.0349 and 0.0089 and 0.0058 and 0.057 and 0.065 and 0.0135 and 0.036 and 0.0158 and 0.0274 and 0.003 and 0.0091 and 0.01 and -0.00355
kinact/KI [5]: 23300 M⁻¹ s⁻¹
EC50 [6, 21]: 17000 nM
IC50 [8, 22]: 75 nM
normalized activity, dose-response curve (Figure S16) [8, 23]: 94.2892 and 94.3168
normalized activity, dose-response curve (Figure S16) [8, 24]: 87.5254 and 99.9152
normalized activity, dose-response curve (Figure S16) [8, 25]: 89.3075 and 94.6561
normalized activity, dose-response curve (Figure S16) [8, 26]: 90.077 and 87.1492
normalized activity, dose-response curve (Figure S16) [8, 27]: 78.3315 and 75.5284
normalized activity, dose-response curve (Figure S16) [8, 28]: 69.502 and 62.8473
normalized activity, dose-response curve (Figure S16) [8, 29]: 41.1102 and 41.9808
normalized activity, dose-response curve (Figure S16) [8, 30]: 10.8147 and 10.0871
normalized activity, dose-response curve (Figure S16) [8, 31]: 3.241 and 2.3258
normalized activity, dose-response curve (Figure S16) [8, 32]: 98.5824 and 101.484
normalized activity, dose-response curve (Figure S16) [8, 33]: 100
binding to 3CL protease by mass spectrometry (in words) [13]: blocked the covalent binding of 10 equivalents of compound 4

CCOC(=O)C=CC(CC1CCNC1=O)NC(=O)C(CC(C)C)NC(=O)C(NC(=O)OCc1ccccc1)C(C)OC(C)(C)C (centres unmarked) [compound 4]
Normalized chymotrypsin activity [14]: 0.9372 and 0.8587 and 0.9322
half-life [17]: 10 min
half-life [18]: > 240 min
EC50 [6, 34]: 800 nM
Normalized SARS-CoV-2 3CL protease activity [8]: 0.006645 and 0.009809 and 0.01123
IC50 ([8]; IC50): 123 nM
binding to 3CL protease by mass spectrometry (in words) [13]: one-to-one complex
half-life [19]: 7.3 min
half-life [20]: 19 min
concentration above which precipitates formed: above 100 µM
binding stoichiometry [15]: 0.97 ± 0.06

O=c1c2ccccc2[se]n1-c1ccccc1 [ebselen, reference compound]
Normalized chymotrypsin activity ([14]; 10µM compound, 100 µg Panc-1 cell lysate, replicates): 0.8849 and 0.7812 and 0.7681
EC50 [6, 34]: 800 nM
% SARS-CoV-2 3CL activity ([8]; log10[nM] 0.404879): 89.3778% and 107.442% and 103.181%
% SARS-CoV-2 3CL activity ([8]; log10[nM] 0.882): 94.9547% and 93.3775% and 98.4402%
% SARS-CoV-2 3CL activity ([8]; log10[nM] 1.35912): 94.2663% and 88.5936% and 99.7037%
% SARS-CoV-2 3CL activity ([8]; log10[nM] 1.83624): 88.0185% and 85.2126% and 81.8055%
% SARS-CoV-2 3CL activity ([8]; log10[nM] 2.31336): 61.5633% and 42.9069% and 50.6187%
% SARS-CoV-2 3CL activity ([8]; log10[nM] 2.79048): 10.2823% and 8.339% and 9.272%
% SARS-CoV-2 3CL activity ([8]; log10[nM] 3.26761): 7.59% and 9.629% and 7.886%
% SARS-CoV-2 3CL activity ([8]; log10[nM] 3.74473): 6.213% and 7.476% and 5.15%
% SARS-CoV-2 3CL activity ([8]; log10[nM] 4.22185): 3.895% and 5.307% and 2.98%
% SARS-CoV-2 3CL activity ([8]; log10[nM] 4.69897): -2.597% and 1.403% and 1.1938%
% SARS-CoV-2 3CL activity ([8]; log10[nM] -0.0722425): 107.261% and 104.787% and 112.511%
% SARS-CoV-2 3CL activity ([8]; log10[nM] -0.549364): 92.7537% and 98.0597% and 109.187%
binding to 3CL protease by mass spectrometry (in words) [13]: binding of multiple ebselen molecules to each 3CL protease molecule
binding stoichiometry ([15]; ITC): didn’t reach saturation until a high molar ratio

PF-00835231
EC50 [16]: 221 nM
